Holding throughout (test): NCI tumour cell line growth inhibition, 48 h
Assay [1] has as its system SF-539 CNS.
Assay [2] concerns HCT-15 colon.
Assay [3] has as its system M14 melanoma.
For assay [4], the system named is LOX IMVI melanoma.
Assay [5] has as its system RPMI-8226 leukemia.
The subject of assay [6] is MALME-3M melanoma.
Assay [7] relates to NCI-H226 lung.
Assay [8] deals with NCI-H522 lung.
The test system of assay [9] is PC-3 prostate.
In assay [10] the test system is ACHN renal.
The test system of assay [11] is SW-620 colon.
Assay [12] relates to SK-OV-3 ovarian.

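Exposure lasted 48 hours, with cells grown in 96-well plates and compounds tested at five concentrations. TGI: concentration producing complete growth inhibition.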 Some results are limits rather than exact numbers.

This is an account of results in PubChem BioAssay (NCI).

Consider `COC(=O)/C(C#N)=C/c1cc(C(C)(C)C)c(O)c(C(C)(C)C)c1`, for which the TGI turned out to be 11 µM in [1]; 13 µM in [2]; 13.6 µM in assay [3]; 17 µM in assay [4]; 3.54 µM in assay [5]; 20.4 µM in assay [6]. Besides, the TGI in assay [7] was 9.6 µM; in assay [8], 5.52 µM; in assay [9], 6.78 µM; in [10], more than 31.3 µM; in [11], 14.5 µM; in [12] it was 8.04 µM.
For `Cc1nn(C(=O)c2ccc(Cl)cc2)c2c1C(c1ccc(Cl)cc1)SC(N)=N2` (configuration not stated), the TGI in assay [1], in assay [2], in assay [3], in [4], in assay [5] and in [6] was more than 10 µM each time. Moreover, the TGI in assay [7], in assay [8], in assay [9], in assay [10], in [11] and in assay [12] was more than 10 µM throughout.
In the case of `COC(=O)[C@@H]1[C@H]2CC[C@]3(C)[C@@H](OC(C)=O)CC[C@H]3[C@@H]2CC[C@H]1C(C)=O`, the TGI in [1], in assay [2], in assay [3], in assay [4], in assay [5] and in assay [6] was more than 100 µM each time. Also, the TGI in [7], in assay [8], in assay [9], in assay [10], in [11] and in [12] was more than 100 µM in each case.
With `CC(=O)OC(C)c1cc2c(s1)C(=O)c1ccsc1C2=O` (configuration not stated), the TGI is 0.182 µM in assay [1]; 0.272 µM in assay [2]; 0.604 µM in assay [3]; 0.119 µM in [4]; 0.486 µM in assay [5]; 0.246 µM in assay [6]. For the same molecule, the TGI in assay [7] stood at 3.79 µM; in assay [8], 0.354 µM; in assay [9], 0.201 µM; in assay [10], 0.31 µM; in [11], 0.835 µM; in assay [12] it was 3.7 µM.
In the case of `COC(=O)[C@H](C)N(C)C(=O)[C@H](C)N1[C@@H](c2ccccc2)COC1(C)C`, the TGI in assay [1], in assay [2], in assay [3], in assay [4], in assay [5] and in assay [6] was more than 100 µM throughout. The TGI in assay [7], in [8], in [9], in [10], in assay [11] and in [12] was more than 100 µM throughout.
As for `C=CCN1C(=O)CS/C1=N\NC(=O)CSc1nc2ccccc2c(=O)n1CC`, the TGI in [1], in [2], in [3], in assay [4], in assay [5] and in assay [6] was more than 100 µM throughout. For the same molecule, the TGI in assay [7], in assay [8], in assay [9], in assay [10], in [11] and in [12] was more than 100 µM each time.
Consider `Oc1cccc2ccc(Br)nc12`, for which the TGI in assay [1], in [2], in assay [3], in assay [4], in assay [5] and in [6] was more than 100 µM in each case. In addition, the TGI in [7], in assay [8], in assay [9], in assay [10], in [11] and in [12] was more than 100 µM in each case.
Turning to `Cn1c(N)c(/C=C/C(=O)Oc2ccccc2)c(=O)n(C)c1=O`, the TGI in assay [1], in assay [2], in assay [3], in assay [4], in assay [5] and in assay [6] was more than 100 µM in each case. For the same molecule, the TGI in assay [7], in assay [8], in assay [9], in assay [10], in assay [11] and in assay [12] was more than 100 µM throughout.
Take `CC(C)(C)NC(=S)N/N=C/c1ccccn1`: the TGI in [1] is 27.6 µM; in [2], more than 100 µM; in assay [3] it was more than 41.9 µM; in assay [4], more than 76.7 µM; in assay [5] it was 3.83 µM; in assay [6] it was more than 100 µM. Moreover, the TGI is more than 25.9 µM in assay [7]; more than 86.9 µM in [8]; more than 100 µM in [9]; 27 µM in assay [10]; more than 100 µM in assay [11]; more than 100 µM in assay [12].
Turning to `c1ccc(COC[C@H]2C3OCC([C@H](OCc4ccccc4)[C@H]3OCc3ccccc3)N2Cc2ccccc2)cc1` (some centres not stated), the TGI in assay [1], in assay [2], in [3], in assay [4], in [5] and in assay [6] was more than 100 µM each time. The TGI was more than 100 µM in [7]; more than 82 µM in [8]; more than 100 µM in assay [9]; more than 100 µM in assay [10]; more than 100 µM in [11]; more than 100 µM in assay [12].
With `O=C1NC(N2CCCCC2)=N/C1=C\c1ccco1`, the TGI in assay [1], in assay [2], in [3], in assay [4], in [5] and in [6] was more than 100 µM each time. The TGI in assay [7], in assay [8], in assay [9], in [10], in [11] and in [12] was more than 100 µM in each case.
